Assay: MTT cell viability assay, compounds at 5, 1 and 0.2 μM, 48 hours
Assay type: cell-based
Conditions: human, A549 tumor cells
Protocol: MTT assay is used to determine cell proliferation, percent of viable cells, and cytotoxicity. MTT (3-[4,5-dimethylthiazol-2-yl]2,5-diphenyltetrazolium bromide) is a yellow dye, which can be absorbed by the living cells and be reduced to purplish blue formazan crystals by succinate tetrazolium reductase in mitochondria. Formazan formation can therefore be used to assess and determine the survival rate of cells.
Tumor cells (A549) were plated at 2500 cells/well of a 96-well plate in complete growth medium (DMEM+10% FBS, antibiotic/antimycotic, fungizone, L-glutamine, sodium pyruvate, and non-essential amino acids). The cells were allowed to grow overnight. After cell proliferation, the cells were washed and re-suspended in fresh culture medium and placed in 96 well plates.
To each of the 96 well plates containing A549 and a control, 5, 1, and 0.2 μM of the exemplary compounds 1-200 were add. The 96 well plates were incubated for 48 hours. Cell viability was measured by adding MTT (Sigma) at 5 mg/ml for 4 h to the cells and then removing the medium and resuspending each well in 50 μl DMSO to solubilize the crystals. The 96-well plates were read on a plate-scanning spectrophotometer (BioTek) at an absorbance of […]. The survival rate of cells was calculated based on the measurement of absorption at the 570 nm wavelength by enzyme immunoassay analyzer.

SMILES: FC(F)(F)c1cccc(Nc2nnc(-c3ccc(Oc4cncnc4)cc3)[nH]2)c1 [Compound 83]
- viability at 48 h, 0.2 µM (0.2 μM): > 70%
- viability at 48 h, 1 µM (1 μM): > 70%
- viability at 48 h, 5 µM (5 μM): > 70%

SMILES: CSc1nc(N)cc(Oc2ccc(-c3nnc(Nc4ccc(Cl)c(C(F)(F)F)c4)[nH]3)cc2)n1 [Compound 66]
- viability at 48 h, 0.2 µM (0.2 μM): > 70%
- viability at 48 h, 1 µM (1 μM): > 70%
- viability at 48 h, 5 µM (5 μM): < 50%

SMILES: COc1ccc2c(Oc3ccc(-c4nnc(Nc5cccc(C(F)(F)F)c5)[nH]4)cc3)cc(C)nc2c1 [Compound 188]
- viability at 48 h, 0.2 µM (0.2 μM): > 70%
- viability at 48 h, 1 µM (1 μM): > 70%
- viability at 48 h, 5 µM (5 μM): > 70%

SMILES: Cc1nccc(Oc2ccc(-c3nnc(Nc4cccc(C(F)(F)F)c4)[nH]3)cc2)n1 [Compound 51]
- viability at 48 h, 0.2 µM (0.2 μM): > 70%
- viability at 48 h, 1 µM (1 μM): 50 to 70%
- viability at 48 h, 5 µM (5 μM): < 50%

SMILES: CCCNc1cc(Oc2ccc(-c3nnc(Nc4cccc(C(F)(F)F)c4)[nH]3)cc2)nc(SC)n1 [Compound 144]
- viability at 48 h, 0.2 µM (0.2 μM): > 70%
- viability at 48 h, 1 µM (1 μM): > 70%
- viability at 48 h, 5 µM (5 μM): 50 to 70%

SMILES: COCCOc1cc(Oc2ccc(-c3nnc(Nc4cccc(C(F)(F)F)c4)[nH]3)cc2)nc(N)n1 [Compound 53]
- viability at 48 h, 0.2 µM (0.2 μM): > 70%
- viability at 48 h, 1 µM (1 μM): > 70%
- viability at 48 h, 5 µM (5 μM): < 50%

SMILES: NS(=O)(=O)c1cnccc1Oc1ccc(-c2nnc(Nc3cccc(C(F)(F)F)c3)o2)cc1 [Compound 31]
- viability at 48 h, 0.2 µM (0.2 μM): > 70%
- viability at 48 h, 1 µM (1 μM): > 70%
- viability at 48 h, 5 µM (5 μM): > 70%

SMILES: FC(F)(F)c1cccc(Nc2nnc(-c3ccc(Oc4ccnc5cc(OCc6ccccc6)ccc45)cc3)[nH]2)c1 [Compound 187]
- viability at 48 h, 0.2 µM (0.2 μM): > 70%
- viability at 48 h, 1 µM (1 μM): > 70%
- viability at 48 h, 5 µM (5 μM): > 70%

SMILES: COCCOc1nc(N)cc(Oc2ccc(-c3nnc(Nc4cccc(C(F)(F)F)c4)[nH]3)cc2)n1 [Compound 78]
- viability at 48 h, 0.2 µM (0.2 μM): > 70%
- viability at 48 h, 1 µM (1 μM): > 70%
- viability at 48 h, 5 µM (5 μM): < 50%

SMILES: CSc1nc(N)cc(Oc2ccc(-c3nnc(Nc4cc(C)ccc4C)[nH]3)cc2)n1 [Compound 67]
- viability at 48 h, 0.2 µM (0.2 μM): 50 to 70%
- viability at 48 h, 1 µM (1 μM): < 50%
- viability at 48 h, 5 µM (5 μM): < 50%

SMILES: NS(=O)(=O)c1cnccc1Oc1cccc(-c2nnc(Nc3cccc(C(F)(F)F)c3)o2)c1 [Compound 39]
- viability at 48 h, 0.2 µM (0.2 μM): > 70%
- viability at 48 h, 1 µM (1 μM): > 70%
- viability at 48 h, 5 µM (5 μM): > 70%

SMILES: CSc1nc(N)cc(Oc2ccc(-c3nnc(Nc4ccc(F)c(C(F)(F)F)c4)[nH]3)cc2)n1 [Compound 105]
- viability at 48 h, 0.2 µM (0.2 μM): > 70%
- viability at 48 h, 1 µM (1 μM): > 70%
- viability at 48 h, 5 µM (5 μM): < 50%

SMILES: FC(F)(F)c1cccc(Nc2nnc(-c3ccc(Oc4ncnc5[nH]ccc45)cc3)[nH]2)c1 [Compound 10]
- viability at 48 h, 0.2 µM (0.2 μM): > 70%
- viability at 48 h, 1 µM (1 μM): > 70%
- viability at 48 h, 5 µM (5 μM): 50 to 70%

SMILES: CSc1nc(Oc2ccc(-c3nnc(Nc4cccc(C(F)(F)F)c4)[nH]3)cc2)c2cc[nH]c2n1 [Compound 9]
- viability at 48 h, 0.2 µM (0.2 μM): > 70%
- viability at 48 h, 1 µM (1 μM): > 70%
- viability at 48 h, 5 µM (5 μM): > 70%

SMILES: FC(F)(F)Oc1ccc2c(Oc3cccc(-c4nnc(Nc5cccc(C(F)(F)F)c5)[nH]4)c3)ccnc2c1 [Compound 173]
- viability at 48 h, 0.2 µM (0.2 μM): > 70%
- viability at 48 h, 1 µM (1 μM): > 70%
- viability at 48 h, 5 µM (5 μM): > 70%

SMILES: Cc1ccc(-c2nnc(Nc3cccc(C(F)(F)F)c3)[nH]2)cc1Oc1ccncc1 [Compound 178]
- viability at 48 h, 0.2 µM (0.2 μM): 50 to 70%
- viability at 48 h, 1 µM (1 μM): < 50%
- viability at 48 h, 5 µM (5 μM): < 50%

SMILES: COc1ccc2c(Oc3ccc(-c4cnc(Nc5cccc(C(F)(F)F)c5)[nH]4)cc3)ccnc2c1 [Compound 200]
- viability at 48 h, 0.2 µM (0.2 μM compound): > 70%
- viability at 48 h, 1 µM (1 μM compound): > 70%
- viability at 48 h, 5 µM (5 μM compound): > 70%

SMILES: CN(C)c1cc(Oc2ccc(-c3nnc(Nc4cccc(C(F)(F)F)c4)[nH]3)cc2)c2ccccc2n1 [Compound 190]
- viability at 48 h, 0.2 µM (0.2 μM): > 70%
- viability at 48 h, 1 µM (1 μM): > 70%
- viability at 48 h, 5 µM (5 μM): 50 to 70%

SMILES: COc1nc(N)cc(Oc2ccc(-c3nnc(Nc4cccc(C(F)(F)F)c4)[nH]3)cc2)n1 [Compound 72]
- viability at 48 h, 0.2 µM (0.2 μM): > 70%
- viability at 48 h, 1 µM (1 μM): > 70%
- viability at 48 h, 5 µM (5 μM): < 50%

Source: patent publication US9212151B2, “Heterocyclic compounds useful for kinase inhibition” (Amitech Therapeutic Solutions, Inc., priority 2010, dated 2015)
